Entries after “also recorded” stand apart in the source; their conditions may differ. Read-outs that look alike come from different tables or passages of the source.
How the values were obtained:
[1] = target: T1, ROS methyltransferase (bovine retinal rod outer segment S-adenosyl-L-methionine-dependent methyltransferase) (Bos taurus, UniProt A0AAA9SD88); test: ROS methyltransferase assay: compounds as substrates (Km) or inhibitors (Ki) of AFC methylation; assay type: biochemical; conditions: for substrate activity for ROS methyltransferase / inhibition of methyltransferase activity towards AFC / competitive inhibition of AFC methylation: in words
T1 construct: utilizing ROS membranes as the source of methyltransferase enzyme; tissue Wanda Lawson Co., Lincoln, Nebr; (frozen bovine retinas); host or cells: bovine retinal rod outer segment (ROS) membranes
Description: Standard assays may be used to determine Km for substrates and Ki for inhibitors. […] The values of Ki and Km are calculated from kinetic assays by conventional means (Fersht, Enzyme Structure and Mechanism, W. H. Freeman and Co., New York, 1984). Examples are provided below to illustrate suitable assays, and are not intended to limit the invention.
One suitable assay of methylation functions uses bovine retinal rod outer segment (ROS) methyltransferase and a natural substrate, transducin. […] Another suitable assay uses N-acetyl-S-farnesylcysteine as a substrate for ROS methyltransferase.
The bovine retinal transducin γ subunit has a carboxyl-terminal --CAAX motif and undergoes a farnesylation reaction similar to that observed on ras (Lai et al., Proc. Natl. Acad. Sci. USA 87:7673, 1990; Fukada et al., Nature 346:658, 1990).
(§1) Frozen bovine retinas (Wanda Lawson Co., Lincoln, Nebr.) were used to prepare ROS membranes depleted of peripheral proteins using a modification of the procedure of Wessling-Resnick et al. (J. Biol. Chem. 262:3697, 1987). Briefly, ROS membranes were washed with low ionic strength buffer and 100μM GTP, resuspended in 50 mM Hepes-Na (pH 7.4), 100 mM NaCl, 5 mM MgCl2, 0.1 mM phenylmethylsulfonyl fluoride, 0.1 mM dithiothreitol (buffer A) and stored in small aliquots at -80° C. until used. Transducin was isolated by disrupting ROS membranes by passing the membranes through a narrow needle and washing the disrupted membranes in a series of centrifugation steps as described by Wessling-Resnick et al. (J. Biol. Chem. 262:3697, 1987). Finally transducin was eluted from the membranes with 100μM GTP. The transducin-enriched supernatant was concentrated using Centriprep (Amicon).
(§2) For initial studies, the reaction mixture contained 20 μCi of S-adenosyl-[methyl-^3 H] methionine ([^3 H]SAM) (2.34 μM, Amersham) and an aliquot of ROS (120μg of total protein) or of washed ROS membranes (80μg of total protein) in 100 μl of buffer A. Purified transducin was added to this mixture to a concentration of 5 μM. AFC, N-acetylcysteine, or AFC methylester was added in 2 μl of dimethyl sulfoxide to give a final concentration of 20 μM, and the reaction was carried out at 37° C.
The above-described methyltransferase assay was used to analyze the analogs described above.

[2] = target: T2, methyltransferase activity present in ROS membrane (Bos taurus, UniProt A0AAA9SD88); test: In vitro [3H]SAM methylation of proteins by ROS membrane methyltransferase; assay type: biochemical, bovine; conditions: in words
T2 construct: substrates transducin gamma, 23-29 kDa small G proteins, AFC
Description: as §1, §2
Incubation of bovine ROS with [^3 H]SAM results in the radioactive labeling of polypeptides with apparent molecular masses of 88, 60, 23-29, and 6 kDa. The methylation of the 88-kDa protein (α subunit of retinal phosphodiesterase) and of the 23- to 29-kDa polypeptides has already been reported (Swanson et al., J. Biol. Chem. 258:10599, 1983; Ota et al., J. Biol. Chem. 264:12879, 1989). The 6-kDa polypeptide coincides with Tγ in SDS/polyacrylamide gels. Moreover, incubation of purified transducin with extensively washed ROS and [^3 H]SAM results in the labeling of the 6-kDa polypeptide and the membrane-associated 23- to 29-kDa proteins. […]

HL-60 cells = test: Inhibition of HL-60 cell proliferation (trypan blue dye exclusion count); assay type: cell-based; conditions: FIG. 2; in words
Description: FTA, FTP, AFHC and AFC were tested for their ability to inhibit cell growth as follows.
HL-60 cells (ATCC CCL 240, American Type Culture Collection, Rockville, Md.) which harbor an activated ras gene were grown in RPMI medium (Gibco/BRL, Bethesda, Md.) supplemented with 10-15% fetal calf serum, L-glutamine, penicillin and streptomycin. These cells were treated with various concentrations of FTA, FTP, AFHC, or AFC dissolved in dimethyl sulfoxide (DMSO) or with DMSO only (In all experiments the final DMSO concentration was 1% or less). Treated ans untreated cells were incubated under standard culture conditions for several days. Cells were counted manually at 24 hour intervals using a trypan blue dye exclusion assay which counts only live, intact cells.

[3] = tested on: methyltransferase activity in HL-60 cells; test: Methylation of AFC by activity present in HL-60 cell membrane; assay type: biochemical; conditions: in words
[4] = Table 1, conventional inhibitors, read-out: Ki
[5] = Table 1, substrates, read-out: Km
[6] = calculated, read-out: Ki for inhibition of AFC methylation
[7] = ROS membranes as source of enzyme, read-out: KM for methylation

T1 sequence (A0AAA9SD88 1-284): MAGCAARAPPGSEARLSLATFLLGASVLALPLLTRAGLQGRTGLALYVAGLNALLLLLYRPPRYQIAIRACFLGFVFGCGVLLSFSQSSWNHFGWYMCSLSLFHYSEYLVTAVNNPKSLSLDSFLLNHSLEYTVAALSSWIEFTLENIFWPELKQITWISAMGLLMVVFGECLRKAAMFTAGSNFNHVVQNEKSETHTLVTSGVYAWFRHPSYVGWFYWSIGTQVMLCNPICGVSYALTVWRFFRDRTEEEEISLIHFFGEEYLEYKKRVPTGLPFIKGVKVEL
T2 sequence (A0AAA9SD88 1-284): as above

CC(C)=CCC/C(C)=C/CC/C(C)=C/C[S+]([O-])CC(=O)O (centres unmarked) [2-farnesylthioacetic acid sulfoxide]
Ki [1, 4]: < 10 µM

CC(C)=CCC/C(C)=C/CC/C(C)=C/CSCCC#N [3-farnesylthiopropionitrile]
status as conventional inhibitor (in place of Ki) ([1]; Table 1): inhibitor

CC(C)=CCC/C(C)=C/CC/C(C)=C/CS/C=C/C(=O)O [3-farnesylthio-trans-acrylic acid]
Ki [1, 4]: 37 µM

disodium 2-farnesylthioethyl phosphate
status as conventional inhibitor (in place of Ki) ([1]; Table 1): inhibitor

CC(C)=CCC/C(C)=C/CC/C(C)=C/CSCC(C)[N+](=O)[O-] (centres unmarked) [3-farnesylthio-2-nitropropane]
status as conventional inhibitor (in place of Ki) ([1]; Table 1): inhibitor

C=C(CSC/C=C(\C)CC/C=C(\C)CCC=C(C)C)C(=O)O [3-farnesylthio-2-methylenepropionic acid]
status as substrate (in place of Km) ([1]; Table 1): substrate

CC(C)=CCC/C(C)=C/CC/C(C)=C/COCCC(=O)O [3-farnesyloxypropionic acid]
Km [1, 5]: 26 µM

C[S+](CC[C@H](N)C(=O)O)C[C@H]1O[C@@H](n2cnc3c(N)ncnc32)[C@H](O)[C@@H]1O (stereo partly drawn) [AdoMet, S-adenosyl-L-methionine, reference compound]
Km ([1]; AFC system, ROS membranes, read-out: apparent KM): 2 µM

CCCCCCC(CC(=O)O)SC/C=C(\C)CC/C=C(\C)CCC=C(C)C (centres unmarked) [3-farnesylthiononanoic acid]
status as conventional inhibitor (in place of Ki) ([1]; Table 1): inhibitor

CC(=O)N[C@@H](CSCCC(C)CCCC(C)CCCC(C)C)C(=O)O (stereo partly drawn) [ATC, N-acetyl-S-(3,7,11-trimethyldodecanyl)-L-cysteine]
substrate activity for ROS methyltransferase [1]: inactive as a substrate; also recorded: lack of activity

CC(C)=CCC/C(C)=C/CC/C(C)=C/CS/C=C\C(=O)O [3-farnesylthio-cis-acrylic acid]
Ki [1, 4]: 40 µM

Nc1ncnc2c1ncn2[C@@H]1O[C@H](C[C@@H](N)CC[C@H](N)C(=O)O)[C@@H](O)[C@H]1O [sinefungin, reference compound]
inhibition of methyltransferase activity towards AFC [1]: inhibited
inhibition of methyltransferase activity present in ROS membrane [2]: inhibited

CC(=O)N[C@@H](C[S+]([O-])C/C=C(\C)CC/C=C(\C)CCC=C(C)C)C(=O)O (some centres unmarked) [AFCS, N-acetyl-S-oxo-farnesylcysteine]
Ki [1, 4]: 13.2 µM
Ki [1, 6]: 11.6 µM
methylation of AFCS ([1]; even at 500 μM): not methylated
competitive inhibition of AFC methylation [1]: potent competitive inhibitors
substrate activity for ROS methyltransferase [1]: lack of activity; also recorded: not substrates

Nc1ncnc2c1ncn2[C@@H]1O[C@H](CSCC[C@H](N)C(=O)O)[C@@H](O)[C@H]1O [SAH, reference compound]
inhibition of methyltransferase activity towards AFC [1]: inhibited
inhibition of methyltransferase activity present in ROS membrane [2]: inhibited

CC(C)=CCC/C(C)=C/CC/C(C)=C/CSC(C)CC(=O)O (centres unmarked) [3-farnesylthiobutyric acid]
Ki [1, 4]: 30 to 40 µM

CSC(CSC/C=C(\C)CC/C=C(\C)CCC=C(C)C)=NO [2-farnesylthio-S-methyl]
status as conventional inhibitor (in place of Ki) ([1]; Table 1): inhibitor

CC(C)=CCC/C(C)=C/CC/C(C)=C/CSCC(N)C(=O)O (centres unmarked) [S-farnesylcysteine]
status as conventional inhibitor (in place of Ki) ([1]; Table 1): inhibitor

CC(=O)NC(C[Se]C/C=C(\C)CC/C=C(\C)CCC=C(C)C)C(=O)O (racemic) [N-acetyl-Se-farnesyl-D,L-cysteine]
Km ([1]; Table 1, substrates): 51 µM

3-farnesylthiocyclohexanecarboxylic acid
status as conventional inhibitor (in place of Ki) ([1]; Table 1): inhibitor

CC(C)=CCC/C(C)=C/CC/C(C)=C/CSCC[N+](=O)[O-] [2-farnesylthio-1-nitroethane]
status as conventional inhibitor (in place of Ki) ([1]; Table 1): inhibitor

CC(C)=CCC/C(C)=C/CC/C(C)=C/CSCC(C)C(=O)O (centres unmarked) [2-methyl-3-farnesylthiopropionic acid]
Km [1, 5]: 21 µM

CC(C)=CCC/C(C)=C/CC/C(C)=C/CSCCC(=O)O [FTP, 3-farnesylthiopropionic acid]
Km [1, 7]: 13.7 µM
Km [1, 5]: 14 µM
substrate activity for ROS methyltransferase [1]: active substrate; also recorded: also a substrate
inhibition of proliferation of HL-60 cells (HL-60 cells): can inhibit proliferation

CC(=O)N[C@@H](CCSC/C=C(\C)CC/C=C(\C)CCC=C(C)C)C(=O)O [AFHC, N-acetyl-S-farnesylhomocysteine]
Ki [1, 4]: 36.3 µM
Ki [1, 6]: 30.2 µM
competitive inhibition of AFC methylation [1]: potent competitive inhibitors
substrate activity for ROS methyltransferase [1]: not a substrate; also recorded: not substrates
inhibition of proliferation of HL-60 cells (HL-60 cells): can inhibit proliferation

CC(C)=CCC/C(C)=C/CC/C(C)=C/C[Se]CCC(=O)O
Ki [1]: 29 µM

CC(=O)N[C@@H](CSC/C=C(\C)CC/C=C(\C)CCC=C(C)C)C(=O)O [AFC, N-acetyl-S-farnesylcysteine]
Km [1, 7]: 23 µM
Km [1, 5]: 23 µM
substrate activity for ROS methyltransferase [1]: acts as a substrate; also recorded: serves as a substrate; also recorded: can serve as a substrate
incorporation of label by [3H]SAM into proteins ([2]; ROS): reduced incorporation of label
inhibition of proliferation of HL-60 cells (HL-60 cells): can inhibit proliferation
methylation by activity in membrane of HL-60 cells [3]: can be methylated

CC(=O)N[C@@H](CSC/C=C(\C)CCC=C(C)C)C(=O)O [AGC, N-acetyl-S-geranyl-L-cysteine]
status as substrate (in place of Km) ([1]; Table 1): substrate
substrate activity for ROS methyltransferase [1]: exceedingly weak substrate; also recorded: marginal activity

CC(C)=CCC/C(C)=C/CC/C(C)=C/CSC[C@H](NC(=O)c1ccccc1)C(=O)O [N-benzoyl-S-farnesylcysteine]
status as substrate (in place of Km) ([1]; Table 1): substrate

N-acetylgeranylgeranylcysteine
status as substrate (in place of Km) ([1]; Table 1): substrate

CC(C)=CCC/C(C)=C/CC/C(C)=C/CSCCC(N)=O [3-farnesylthiopropionamide]
status as conventional inhibitor (in place of Ki) ([1]; Table 1): inhibitor

CC(=O)N[C@@H](CS)C(=O)O [N-acetylcysteine, reference compound]
substrate activity for ROS methyltransferase [1]: not a substrate

CC(=O)N[C@H](CSC/C=C(\C)CC/C=C(\C)CCC=C(C)C)C(=O)O [N-acetyl-S-farnesyl-D-cysteine]
Km [1, 5]: 42 µM
